The kinase profiling compilation of Christmann-Franck et al. (2016)

Legend:
Experiment in all cases: KINOMEscan competition binding
Details in all cases: compound 10.0 µM
PRKACB (human) = PRKACB (human) (UniProt P22694)
MST4 (human) = MST4 (human) (UniProt Q9P289)
FYN (human) = FYN (human) (UniProt P06241)
MELK (human) = MELK (human) (UniProt Q14680)
IKBKE (human) = IKBKE (human) (UniProt Q14164)
BTK (human) = BTK (human) (UniProt Q06187)
FGFR1 (human) = FGFR1 (human) (UniProt P11362)
[1] = system: KIT (human), P10721 [V559D/V654A]
PAK2 (human) = PAK2 (human) (UniProt Q13177)
MAP2K4 (human) = MAP2K4 (human) (UniProt P45985)
CDK9 (human) = CDK9 (human) (UniProt P50750)
MAPK4 (human) = MAPK4 (human) (UniProt P31152)
MAK (human) = MAK (human) (UniProt P20794)
GSK3A (human) = GSK3A (human) (UniProt P49840)
PIP4K2B (human) = PIP4K2B (human) (UniProt P78356)
VRK2 (human) = VRK2 (human) (UniProt Q86Y07)
EPHA3 (human) = EPHA3 (human) (UniProt P29320)
MAPK9 (human) = MAPK9 (human) (UniProt P45984)
ACVR2B (human) = ACVR2B (human) (UniProt Q13705)
RIPK1 (human) = RIPK1 (human) (UniProt Q13546)
CDK19 (human) = CDK19 (human) (UniProt Q9BWU1)
CAMK2G (human) = CAMK2G (human) (UniProt Q13555)
[2] = system: EGFR (human), P00533 [T790M/L858R]
IRAK3 (human) = IRAK3 (human) (UniProt Q9Y616)
CAMK4 (human) = CAMK4 (human) (UniProt Q16566)
CDKL3 (human) = CDKL3 (human) (UniProt Q8IVW4)
CSNK1A1L (human) = CSNK1A1L (human) (UniProt Q8N752)
MAP3K5 (human) = MAP3K5 (human) (UniProt Q99683)
MAP3K1 (human) = MAP3K1 (human) (UniProt Q13233)
ITK (human) = ITK (human) (UniProt Q08881)
PIK3CD (human) = PIK3CD (human) (UniProt O00329)
RPS6KA1 KD2 (human) = RPS6KA1 KD2 (human) (UniProt Q15418)
PRKG2 (human) = PRKG2 (human) (UniProt Q13237)
NIM1 (human) = NIM1 (human) (UniProt Q8IY84)
PRKAA2 (human) = PRKAA2 (human) (UniProt P54646)
RPS6KA3 KD1 (human) = RPS6KA3 KD1 (human) (UniProt P51812)
MAP3K3 (human) = MAP3K3 (human) (UniProt Q99759)
MST1R (human) = MST1R (human) (UniProt Q04912)
CSF1R (human) = CSF1R (human) (UniProt P07333)
PIP5K1A (human) = PIP5K1A (human) (UniProt Q99755)

Chain of ITK (human) (Q08881 whole entry, looked up): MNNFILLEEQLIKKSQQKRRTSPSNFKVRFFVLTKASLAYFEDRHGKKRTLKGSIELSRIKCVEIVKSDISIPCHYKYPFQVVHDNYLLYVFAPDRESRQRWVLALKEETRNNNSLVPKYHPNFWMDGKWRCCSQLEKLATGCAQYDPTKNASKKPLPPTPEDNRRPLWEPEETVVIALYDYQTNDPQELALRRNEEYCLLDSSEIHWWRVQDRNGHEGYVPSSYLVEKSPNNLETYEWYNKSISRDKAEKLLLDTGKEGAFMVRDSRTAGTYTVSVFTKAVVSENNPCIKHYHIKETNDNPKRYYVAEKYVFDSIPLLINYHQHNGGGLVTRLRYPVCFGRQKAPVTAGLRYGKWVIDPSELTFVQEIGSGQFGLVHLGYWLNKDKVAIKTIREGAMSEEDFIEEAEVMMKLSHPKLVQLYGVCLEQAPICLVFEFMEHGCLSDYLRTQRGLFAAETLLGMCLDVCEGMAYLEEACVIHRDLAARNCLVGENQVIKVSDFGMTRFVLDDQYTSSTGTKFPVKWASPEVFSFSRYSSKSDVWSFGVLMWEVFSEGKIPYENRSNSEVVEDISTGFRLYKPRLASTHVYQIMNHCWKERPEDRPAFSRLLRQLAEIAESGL
Chain of CDK9 (human) (P50750 whole entry, looked up): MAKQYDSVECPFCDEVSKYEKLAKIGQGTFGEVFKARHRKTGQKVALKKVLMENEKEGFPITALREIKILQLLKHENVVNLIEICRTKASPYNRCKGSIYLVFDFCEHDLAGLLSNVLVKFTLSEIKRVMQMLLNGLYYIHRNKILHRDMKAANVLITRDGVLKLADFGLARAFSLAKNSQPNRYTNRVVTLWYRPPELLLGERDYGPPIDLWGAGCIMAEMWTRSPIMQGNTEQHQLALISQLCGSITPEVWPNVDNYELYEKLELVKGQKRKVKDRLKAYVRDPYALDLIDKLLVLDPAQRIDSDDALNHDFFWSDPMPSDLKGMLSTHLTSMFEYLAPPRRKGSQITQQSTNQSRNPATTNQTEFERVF
Chain of MAP2K4 (human) (P45985 whole entry, looked up): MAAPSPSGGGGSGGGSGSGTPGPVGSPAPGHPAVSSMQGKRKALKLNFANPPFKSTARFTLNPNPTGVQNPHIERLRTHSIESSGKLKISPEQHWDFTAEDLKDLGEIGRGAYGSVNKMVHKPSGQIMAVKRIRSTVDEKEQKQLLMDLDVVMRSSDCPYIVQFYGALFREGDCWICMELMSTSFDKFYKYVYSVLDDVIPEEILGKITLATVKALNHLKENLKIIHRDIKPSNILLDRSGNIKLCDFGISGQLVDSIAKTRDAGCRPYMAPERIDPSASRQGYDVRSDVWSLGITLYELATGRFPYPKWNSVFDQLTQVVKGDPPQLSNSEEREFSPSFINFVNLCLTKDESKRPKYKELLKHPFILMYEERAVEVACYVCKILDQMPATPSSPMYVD
Chain of CSF1R (human) (P07333 whole entry, looked up): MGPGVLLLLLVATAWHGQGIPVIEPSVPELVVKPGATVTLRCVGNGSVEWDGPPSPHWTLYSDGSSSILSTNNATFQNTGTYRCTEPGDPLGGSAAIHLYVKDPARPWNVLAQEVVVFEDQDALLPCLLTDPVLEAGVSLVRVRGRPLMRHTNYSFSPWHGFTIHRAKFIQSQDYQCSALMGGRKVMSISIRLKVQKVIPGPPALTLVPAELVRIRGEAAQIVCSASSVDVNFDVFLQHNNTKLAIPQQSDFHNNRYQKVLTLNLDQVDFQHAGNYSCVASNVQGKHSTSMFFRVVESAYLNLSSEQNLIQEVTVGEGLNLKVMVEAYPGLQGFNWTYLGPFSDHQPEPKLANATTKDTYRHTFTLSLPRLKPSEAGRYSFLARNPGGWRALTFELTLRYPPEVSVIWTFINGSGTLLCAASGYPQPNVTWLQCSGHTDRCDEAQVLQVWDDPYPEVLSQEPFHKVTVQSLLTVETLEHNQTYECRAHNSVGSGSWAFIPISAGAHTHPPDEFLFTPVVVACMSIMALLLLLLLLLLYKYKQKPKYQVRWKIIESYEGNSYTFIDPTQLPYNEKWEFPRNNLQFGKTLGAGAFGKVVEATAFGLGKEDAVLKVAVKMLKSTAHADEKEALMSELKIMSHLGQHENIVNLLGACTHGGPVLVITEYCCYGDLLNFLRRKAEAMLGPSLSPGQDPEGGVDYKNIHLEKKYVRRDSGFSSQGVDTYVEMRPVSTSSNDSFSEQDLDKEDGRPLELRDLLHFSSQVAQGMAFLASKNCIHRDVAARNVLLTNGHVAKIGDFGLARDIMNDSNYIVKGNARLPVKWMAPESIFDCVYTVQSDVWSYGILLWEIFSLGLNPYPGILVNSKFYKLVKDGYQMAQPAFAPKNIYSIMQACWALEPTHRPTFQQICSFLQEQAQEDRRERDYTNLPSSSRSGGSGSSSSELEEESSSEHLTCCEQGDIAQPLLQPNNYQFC
Chain of CSNK1A1L (human) (Q8N752 whole entry, looked up): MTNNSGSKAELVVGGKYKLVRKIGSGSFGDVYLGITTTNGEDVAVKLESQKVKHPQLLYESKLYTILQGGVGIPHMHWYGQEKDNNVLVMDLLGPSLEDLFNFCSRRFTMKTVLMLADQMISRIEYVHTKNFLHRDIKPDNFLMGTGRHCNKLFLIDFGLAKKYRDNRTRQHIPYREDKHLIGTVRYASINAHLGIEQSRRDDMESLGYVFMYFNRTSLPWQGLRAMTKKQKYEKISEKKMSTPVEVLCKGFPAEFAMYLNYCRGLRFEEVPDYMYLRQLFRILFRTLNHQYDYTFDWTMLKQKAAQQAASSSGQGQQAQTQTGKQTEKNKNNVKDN
Chain of MAK (human) (P20794 whole entry, looked up): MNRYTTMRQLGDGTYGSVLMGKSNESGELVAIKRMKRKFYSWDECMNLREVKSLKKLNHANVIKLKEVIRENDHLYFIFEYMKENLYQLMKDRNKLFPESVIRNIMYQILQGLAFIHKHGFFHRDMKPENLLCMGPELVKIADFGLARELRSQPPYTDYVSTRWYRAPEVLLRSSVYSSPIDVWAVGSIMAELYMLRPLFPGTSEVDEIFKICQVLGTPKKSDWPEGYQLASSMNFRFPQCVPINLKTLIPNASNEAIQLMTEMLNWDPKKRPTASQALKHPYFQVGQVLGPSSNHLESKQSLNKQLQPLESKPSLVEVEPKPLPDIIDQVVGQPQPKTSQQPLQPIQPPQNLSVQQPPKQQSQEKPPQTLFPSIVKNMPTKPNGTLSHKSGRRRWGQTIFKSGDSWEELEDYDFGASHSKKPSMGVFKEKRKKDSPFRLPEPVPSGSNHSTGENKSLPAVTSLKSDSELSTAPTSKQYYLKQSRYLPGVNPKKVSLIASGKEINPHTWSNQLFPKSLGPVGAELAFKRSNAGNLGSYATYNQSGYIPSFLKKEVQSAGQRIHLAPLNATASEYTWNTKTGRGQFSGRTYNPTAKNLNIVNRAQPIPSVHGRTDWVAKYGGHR
Chain of KIT (human), P10721 [V559D/V654A] (P10721 whole entry V559D/V654A, looked up): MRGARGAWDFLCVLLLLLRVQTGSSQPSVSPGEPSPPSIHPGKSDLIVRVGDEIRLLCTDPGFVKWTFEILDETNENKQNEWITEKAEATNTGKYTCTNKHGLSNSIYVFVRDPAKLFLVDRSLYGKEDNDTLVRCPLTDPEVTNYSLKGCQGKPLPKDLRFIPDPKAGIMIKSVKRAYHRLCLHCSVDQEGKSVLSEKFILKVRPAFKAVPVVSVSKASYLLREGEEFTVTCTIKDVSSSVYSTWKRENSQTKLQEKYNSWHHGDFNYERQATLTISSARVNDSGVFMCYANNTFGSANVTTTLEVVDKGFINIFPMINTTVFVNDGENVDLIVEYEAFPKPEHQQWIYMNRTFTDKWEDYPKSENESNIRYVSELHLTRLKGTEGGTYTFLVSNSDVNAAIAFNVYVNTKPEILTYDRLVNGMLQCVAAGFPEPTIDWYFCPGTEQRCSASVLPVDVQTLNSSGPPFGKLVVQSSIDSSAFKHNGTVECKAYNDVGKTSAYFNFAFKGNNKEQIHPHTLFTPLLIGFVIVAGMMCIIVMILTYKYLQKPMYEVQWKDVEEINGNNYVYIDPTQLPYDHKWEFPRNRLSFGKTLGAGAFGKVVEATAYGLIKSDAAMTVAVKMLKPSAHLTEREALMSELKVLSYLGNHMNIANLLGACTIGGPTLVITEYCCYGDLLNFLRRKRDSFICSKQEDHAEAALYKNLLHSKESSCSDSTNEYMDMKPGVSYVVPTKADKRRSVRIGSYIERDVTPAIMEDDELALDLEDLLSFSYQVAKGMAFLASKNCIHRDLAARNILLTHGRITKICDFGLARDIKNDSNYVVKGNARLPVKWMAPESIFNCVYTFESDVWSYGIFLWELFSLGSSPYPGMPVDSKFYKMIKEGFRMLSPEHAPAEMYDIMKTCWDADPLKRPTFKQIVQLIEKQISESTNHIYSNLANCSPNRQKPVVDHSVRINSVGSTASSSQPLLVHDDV
Chain of FYN (human) (P06241 whole entry, looked up): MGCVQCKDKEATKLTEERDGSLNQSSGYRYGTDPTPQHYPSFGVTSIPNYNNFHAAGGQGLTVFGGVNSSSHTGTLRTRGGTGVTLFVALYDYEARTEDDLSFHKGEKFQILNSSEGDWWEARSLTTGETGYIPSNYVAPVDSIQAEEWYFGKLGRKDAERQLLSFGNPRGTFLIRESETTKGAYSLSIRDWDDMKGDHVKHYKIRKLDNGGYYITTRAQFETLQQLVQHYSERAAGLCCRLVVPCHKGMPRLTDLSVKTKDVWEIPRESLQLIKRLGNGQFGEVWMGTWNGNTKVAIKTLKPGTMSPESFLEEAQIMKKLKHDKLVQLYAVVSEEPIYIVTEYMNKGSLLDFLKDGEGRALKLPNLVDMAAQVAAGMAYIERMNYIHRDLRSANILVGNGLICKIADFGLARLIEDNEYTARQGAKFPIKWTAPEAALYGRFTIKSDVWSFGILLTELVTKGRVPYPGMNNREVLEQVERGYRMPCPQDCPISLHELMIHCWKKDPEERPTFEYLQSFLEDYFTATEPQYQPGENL

| SMILES | kinase still bound, per cent of control (PRKACB (human)) | kinase still bound, per cent of control (MST4 (human)) | kinase still bound, per cent of control (FYN (human)) | kinase still bound, per cent of control (MELK (human)) | kinase still bound, per cent of control (IKBKE (human)) | kinase still bound, per cent of control (BTK (human)) | kinase still bound, per cent of control (FGFR1 (human)) | kinase still bound, per cent of control [1] | kinase still bound, per cent of control (PAK2 (human)) | kinase still bound, per cent of control (MAP2K4 (human)) | kinase still bound, per cent of control (CDK9 (human)) | kinase still bound, per cent of control (MAPK4 (human)) | kinase still bound, per cent of control (MAK (human)) | kinase still bound, per cent of control (GSK3A (human)) | kinase still bound, per cent of control (PIP4K2B (human)) | kinase still bound, per cent of control (VRK2 (human)) | kinase still bound, per cent of control (EPHA3 (human)) | kinase still bound, per cent of control (MAPK9 (human)) | kinase still bound, per cent of control (ACVR2B (human)) | kinase still bound, per cent of control (RIPK1 (human)) | also measured |
| --- | --- | --- | --- | --- | --- | --- | --- | --- | --- | --- | --- | --- | --- | --- | --- | --- | --- | --- | --- | --- | --- |
| O=c1cc(N2CCOCC2)oc2c(-c3cccc4c3sc3ccccc34)cccc12 | 92% | 95% | 100% | 100% | 100% | 100% | 93% | 100% | 61% | 100% | 98% | 100% | 43% | 78% | 100% | 100% | 91% | 39% | 98% | 100% | kinase still bound, per cent of control (CDK19 (human)): 100%; kinase still bound, per cent of control (CAMK2G (human)): 86%; kinase still bound, per cent of control [2]: 93%; kinase still bound, per cent of control (IRAK3 (human)): 41%; kinase still bound, per cent of control (CAMK4 (human)): 100%; kinase still bound, per cent of control (CDKL3 (human)): 100%; kinase still bound, per cent of control (CSNK1A1L (human)): 92%; kinase still bound, per cent of control (MAP3K5 (human)): 100%; kinase still bound, per cent of control (MAP3K1 (human)): 100%; kinase still bound, per cent of control (ITK (human)): 100%; kinase still bound, per cent of control (PIK3CD (human)): 3.3%; kinase still bound, per cent of control (RPS6KA1 KD2 (human)): 75%; kinase still bound, per cent of control (PRKG2 (human)): 93%; kinase still bound, per cent of control (NIM1 (human)): 100%; kinase still bound, per cent of control (PRKAA2 (human)): 100%; kinase still bound, per cent of control (RPS6KA3 KD1 (human)): 84%; kinase still bound, per cent of control (MAP3K3 (human)): 92%; kinase still bound, per cent of control (MST1R (human)): 97%; kinase still bound, per cent of control (CSF1R (human)): 100%; kinase still bound, per cent of control (PIP5K1A (human)): 100% |
| COc1cc(C(=O)N2CCC(N3CCN(C)CC3)CC2)ccc1Nc1ncc2c(n1)N(C)c1ccccc1C(=O)N2C | 100% | 95% | 100% | 100% | 96% | 100% | 86% | 100% | 65% | 100% | 100% | 100% | 72% | 100% | 100% | 99% | 100% | 94% | 100% | 99% | kinase still bound, per cent of control (CDK19 (human)): 100%; kinase still bound, per cent of control (CAMK2G (human)): 47%; kinase still bound, per cent of control [2]: 84%; kinase still bound, per cent of control (IRAK3 (human)): 100%; kinase still bound, per cent of control (CAMK4 (human)): 79%; kinase still bound, per cent of control (CDKL3 (human)): 83%; kinase still bound, per cent of control (CSNK1A1L (human)): 100%; kinase still bound, per cent of control (MAP3K5 (human)): 100%; kinase still bound, per cent of control (MAP3K1 (human)): 95%; kinase still bound, per cent of control (ITK (human)): 82%; kinase still bound, per cent of control (PIK3CD (human)): 62%; kinase still bound, per cent of control (RPS6KA1 KD2 (human)): 10%; kinase still bound, per cent of control (PRKG2 (human)): 74%; kinase still bound, per cent of control (NIM1 (human)): 100%; kinase still bound, per cent of control (PRKAA2 (human)): 66%; kinase still bound, per cent of control (RPS6KA3 KD1 (human)): 77%; kinase still bound, per cent of control (MAP3K3 (human)): 97%; kinase still bound, per cent of control (MST1R (human)): 98%; kinase still bound, per cent of control (CSF1R (human)): 98%; kinase still bound, per cent of control (PIP5K1A (human)): 90% |
| C=CC(=O)Nc1cc(-n2c(=O)ccc3cnc4ccc(-c5cn[nH]c5)cc4c32)ccc1C | 100% | 79% | 90% | 43% | 100% | 0.2% | 80% | 100% | 87% | 14% | 100% | 100% | 94% | 13% | 73% | 88% | 100% | 9.6% | 21% | 100% | kinase still bound, per cent of control (CDK19 (human)): 100%; kinase still bound, per cent of control (CAMK2G (human)): 45%; kinase still bound, per cent of control [2]: 18%; kinase still bound, per cent of control (IRAK3 (human)): 0.7%; kinase still bound, per cent of control (CAMK4 (human)): 100%; kinase still bound, per cent of control (CDKL3 (human)): 33%; kinase still bound, per cent of control (CSNK1A1L (human)): 90%; kinase still bound, per cent of control (MAP3K5 (human)): 100%; kinase still bound, per cent of control (MAP3K1 (human)): 97%; kinase still bound, per cent of control (ITK (human)): 29%; kinase still bound, per cent of control (PIK3CD (human)): 27%; kinase still bound, per cent of control (RPS6KA1 KD2 (human)): 94%; kinase still bound, per cent of control (PRKG2 (human)): 78%; kinase still bound, per cent of control (NIM1 (human)): 89%; kinase still bound, per cent of control (PRKAA2 (human)): 78%; kinase still bound, per cent of control (RPS6KA3 KD1 (human)): 69%; kinase still bound, per cent of control (MAP3K3 (human)): 91%; kinase still bound, per cent of control (MST1R (human)): 99%; kinase still bound, per cent of control (CSF1R (human)): 90%; kinase still bound, per cent of control (PIP5K1A (human)): 44% |
